# Test results from DBAASP.
# How the values were obtained:
# Test in all cases: ≥ marks a high value that may be exact or a test limit, other limits are often not marked, values filed in µg/mL are converted to µM
# Trichosporon beigelii = system: Trichosporon beigelii
# [1] = system: Aspergillus flavus KCTC 9471
# [2] = system: Candida albicans KCTC 7270
# Bacillus subtilis = system: Bacillus subtilis
# Staphylococcus aureus = system: Staphylococcus aureus
# Saccharomyces cerevisiae = system: Saccharomyces cerevisiae
# Salmonella typhimurium = system: Salmonella typhimurium
# [3] = system: Escherichia coli O157:H7 ATCC 43895
# Fusarium verticillioides = system: Fusarium verticillioides
# [4] = system: Staphylococcus epidermidis
# Escherichia coli = system: Escherichia coli
# [5] = system: Aspergillus fumigatus KCTC 6145
# Proteus vulgaris = system: Proteus vulgaris
# Botrytis cinerea = system: Botrytis cinerea
# [6] = system: Listeria monocytogenes KCTC 3710
# Pseudomonas aeruginosa = system: Pseudomonas aeruginosa
# [7] = system: Klebsiella pneumoniae ATCC BAA-2146
# [8] = system: Pseudomonas aeruginosa ATCC 27853
# [9] = system: Acinetobacter baumannii ATCC 19606
# [10] = system: Klebsiella pneumoniae ATCC 700603
# [11] = system: Candida albicans ATCC 90028
# [12] = system: Klebsiella pneumoniae ATCC 13883
# Acinetobacter baumannii = system: Acinetobacter baumannii
# [13] = system: Staphylococcus aureus ATCC 43300
# [14] = system: Cryptococcus neoformans ATCC 208821
# Klebsiella pneumoniae = system: Klebsiella pneumoniae
# [15] = system: Escherichia coli ATCC 25922
# [16] = system: Bacillus subtilis ATCC 6051
# [17] = system: Pseudomonas aeruginosa ATCC BAA-2114
# [18] = system: Staphylococcus aureus ATCC 29213
# [19] = system: Staphylococcus aureus ATCC 33591
# [20] = system: Enterococcus faecalis ATCC 19433
# [21] = system: Escherichia coli ATCC BAA-2452
# [22] = system: Enterococcus faecalis ATCC BAA-2316
# [23] = system: Enterococcus faecalis ATCC BAA-2365
# [24] = system: Staphylococcus aureus ATCC BAA-41
# [25] = system: Staphylococcus epidermidis ATCC 12228
# [26] = system: Candida albicans ATCC 10231
# [27] = system: Saccharomyces cerevisiae SZMC 0644
# Candida krusei CBS 573 = system: Candida krusei CBS 573
# [28] = system: Candida parapsilosis CBS 604
# [29] = system: Enterococcus faecalis ATCC 29212
# [30] = system: Bacillus subtilis subsp. spizizenii
# [31] = system: Pseudomonas aeruginosa PAO1
# [32] = system: Staphylococcus aureus WKZ-2
# [33] = system: Staphylococcus aureus ATCC 6538P
smiles,measurement,setting,value
CC[C@H](C)[C@H](NC(=O)[C@H](CCCCN)NC(=O)[C@H](CO)NC(=O)[C@H](Cc1ccccc1)NC(=O)[C@H](CC(C)C)NC(=O)[C@H](CCCCN)NC(=O)[C@H](CCC(=O)O)NC(=O)[C@H](CC(C)C)NC(=O)[C@H](CCCN=C(N)N)NC(=O)[C@H](CCCCN)NC(=O)[C@H](CO)NC(=O)[C@@H](NC(=O)[C@H](CCCCN)NC(=O)[C@H](CCCCN)NC(=O)[C@H](C)N)C(C)C)C(=O)N[C@@H](CCC(N)=O)C(=O)N[C@@H](CC(N)=O)C(=O)N[C@@H](CC(=O)O)C(=O)N[C@@H](CCCCN)C(N)=O [AKKVSKRLEKLFSKIQNDK],MIC,Trichosporon beigelii,12.5 µM
same,MIC,[1],≥ 50 µM
same,MIC,[2],25 µM
same,MIC,Bacillus subtilis,3.13 µM
same,MIC,Staphylococcus aureus,> 12.5 µM
same,MIC,Saccharomyces cerevisiae,25 µM
same,MIC,Salmonella typhimurium,12.5 µM
same,MIC,[3],6.25 µM
same,MIC,Fusarium verticillioides,≥ 50 µM
same,MIC,[4],12.5 µM
same,MIC,Escherichia coli,6.25 µM
same,MIC,[5],≥ 50 µM
same,MIC,Proteus vulgaris,12.5 µM
same,MIC,Botrytis cinerea,≥ 50 µM
same,MIC,[6],12.5 µM
same,MIC,Pseudomonas aeruginosa,12.5 µM
CC[C@H](C)[C@@H]1NC(=O)CNC(=O)[C@H](CCCN=C(N)N)NC(=O)[C@H](Cc2ccc(O)cc2)NC(=O)[C@@H](NC(=O)[C@@H](NC(=O)[C@H](CCCN=C(N)N)NC(=O)[C@H](Cc2ccccc2)NC(=O)[C@H](C)NC(=O)[C@H](Cc2c[nH]c3ccccc23)NC(=O)[C@@H](N)CCCCN)C(C)C)CSSC[C@@H](C(=O)N[C@@H](Cc2ccc(O)cc2)C(=O)N[C@@H](CCCN=C(N)N)C(=O)N[C@@H](CCCN=C(N)N)C(=O)N[C@@H](CO)C(=O)N[C@@H](CCCN=C(N)N)C(=O)O)NC1=O [KWAFRVCYRGICYRRSR],MIC,[7],7.21 µM
same,MIC,[8],> 7.21 µM
same,MIC,[9],> 7.21 µM
same,MIC,[10],7.21 µM
same,MIC,[11],7.21 µM
same,MIC,[12],7.21 µM
same,MIC,Acinetobacter baumannii,7.21 µM
same,MIC,[13],> 7.21 µM
same,MIC,[14],1.8 µM
same,MIC,Klebsiella pneumoniae,> 7.21 µM
same,MIC,[15],1.8 µM
same,MIC,[16],0.225 µM
same,MIC,Pseudomonas aeruginosa,> 7.21 µM
CC[C@H](C)[C@H](NC(=O)[C@H](CCCN=C(N)N)NC(=O)[C@H](CCC(=O)O)NC(=O)[C@@H](NC(=O)[C@@H](NC(=O)[C@H](CCCN=C(N)N)NC(=O)[C@H](CCCCN)NC(=O)[C@H](Cc1ccccc1)NC(=O)[C@H](CCC(=O)O)NC(=O)[C@H](CCCCN)NC(=O)CNC(=O)[C@@H](NC(=O)[C@@H](NC(=O)[C@@H]1CCCN1C(=O)[C@H](CO)NC(=O)[C@H](CC(C)C)NC(=O)[C@H](CCCCN)NC(=O)[C@H](CCCCN)NC(=O)[C@H](Cc1ccccc1)NC(=O)[C@H](CC(C)C)NC(=O)[C@H](CCCCN)NC(=O)[C@H](CCCCN)NC(=O)[C@H](Cc1ccccc1)NC(=O)[C@@H](N)CCCCN)C(C)C)[C@@H](C)CC)[C@@H](C)CC)C(C)C)C(=O)N[C@@H](CCCCN)C(=O)N[C@@H](CCCN=C(N)N)C(=O)N[C@@H](Cc1ccccc1)C(=O)N[C@@H](CC(C)C)C(=O)N[C@@H](CCCN=C(N)N)C(=O)O [KFKKLFKKLSPVIGKEFKRIVERIKRFLR],MIC,[17],25 µM
same,MIC,[18],20 µM
same,MIC,[19],10 µM
same,MIC,[8],20 µM
same,MIC,[9],10 µM
same,MIC,[20],15 µM
same,MIC,[21],10 µM
same,MIC,[12],2.5 µM
same,MIC,[13],10 µM
same,MIC,[22],5 µM
same,MIC,[23],5 µM
same,MIC,[24],10 µM
same,MIC,[25],10 µM
same,MIC,[15],10 µM
CC[C@H](C)[C@H](NC(=O)[C@@H]1CSSC[C@H](NC(=O)[C@H](CCCCN)NC(=O)CN)C(=O)N[C@@H](CCC(=O)O)C(=O)N[C@@H](Cc2c[nH]c3ccccc23)C(=O)N[C@@H](CCC(N)=O)C(=O)NCC(=O)NCC(=O)N[C@@H](CCC(N)=O)C(=O)N[C@@H](CC(C)C)C(=O)N[C@@H](CC(N)=O)C(=O)N1)C(=O)N[C@@H](C)C(=O)N[C@H](C(=O)O)[C@@H](C)O [GKCEWQGGQLNCIAT],MIC,[26],> 62.2 µM
same,MIC,[27],≥ 62.2 µM
same,MIC,Candida krusei CBS 573,≥ 62.2 µM
same,MIC,[28],≥ 62.2 µM
CC[C@H](C)[C@H](N)C(=O)N[C@@H](CCCCN)C(=O)N[C@@H](Cc1ccc(O)cc1)C(=O)N[C@@H](CC(C)C)C(=O)N[C@@H](CC(C)C)C(=O)N[C@H](C(=O)N[C@@H](CCCCN)C(=O)N[C@@H](CC(C)C)C(=O)N[C@@H](CCC(N)=O)C(=O)NCC(=O)N[C@@H](C)C(=O)N[C@@H](CO)C(=O)N[C@@H](CCC(N)=O)C(=O)N[C@@H](CCCCN)C(=O)N[C@H](C(=O)N[C@H](C(=O)N[C@H](C(=O)N[C@@H](CC(C)C)C(=O)N[C@@H](CCSC)C(=O)N[C@@H](CC(C)C)C(=O)N[C@@H](CCCN=C(N)N)C(=O)N[C@@H](CCCN=C(N)N)C(=O)N[C@@H](CC(N)=O)C(=O)O)[C@@H](C)O)[C@@H](C)CC)[C@@H](C)O)C(C)C [IKYLLVKLQGASQKTITLMLRRN],MIC,[29],25.3 µM
same,MIC,[18],3.16 µM
same,MIC,[10],50.6 µM
same,MIC,[30],≥ 50.6 µM
same,MIC,[31],50.6 µM
same,MIC,[32],3.16 µM
same,MIC,[15],12.6 µM
same,MIC,[33],6.32 µM
